This note sets out measurements from ChEMBL document CHEMBL3044825, “Synthesis and in vitro microbial activities of amides of pyridoquinolone” (2011).

Assay type in all cases: functional
Common to all, as to conditions: read-out: IZ

One assay has as its system Bacillus subtilis. The experiment in a line: Antibacterial activity against Bacillus subtilis at 100 ug/ml by cup plate method.
The subject of another assay is Candida albicans. Nature of the assay: Antifungal activity against Candida albicans at 100 ug/ml by cup-plate method.
The next assay has as its system Staphylococcus aureus. The experiment in a line: Antibacterial activity against Staphylococcus aureus at 100 ug/ml by cup-plate method.
The subject of another assay is Escherichia coli. Nature of the assay: Antibacterial activity against Escherichia coli at 100 ug/ml by cup-plate method.
The test system of a further assay is Pseudomonas aeruginosa. Nature of the assay: Antibacterial activity against Pseudomonas aeruginosa at 100 ug/ml by cup-plate method.

As to `Cc1cccc(NC(=S)NC(=O)c2cn(CCO)c3c(cc(O)c4ncccc43)c2=O)c1`, the zone of inhibition at 100 µg/mL with Bacillus subtilis stood at 8 mm; in the assay on Candida albicans it was 3 mm; in the assay on Staphylococcus aureus it was 9 mm; with Escherichia coli, 9 mm; with Pseudomonas aeruginosa, 9 mm.
Consider `Cc1ccccc1NC(=S)NC(=O)c1cn(CCO)c2c(cc(O)c3ncccc32)c1=O`, for which the zone of inhibition at 100 µg/mL with Bacillus subtilis came to 7 mm; in the assay on Candida albicans it was 0 mm; in the assay on Staphylococcus aureus, 5 mm; in the assay with Escherichia coli, 6 mm; with Pseudomonas aeruginosa, 0 mm.
Regarding `COc1ccccc1NS(=O)(=O)c1ccc(NC(=O)c2cn(CCO)c3c(cc(O)c4ncccc43)c2=O)cc1`, the zone of inhibition at 100 µg/mL in the assay with Bacillus subtilis amounted to 8 mm; in the assay with Candida albicans it was 1 mm; with Staphylococcus aureus, 6 mm; in the assay on Escherichia coli, 0 mm; with Pseudomonas aeruginosa it was 6 mm.
Consider `O=C(Nc1ccc(S(=O)(=O)Nc2ccc(Cl)cc2)cc1)c1cn(CCO)c2c(cc(Cl)c3ncccc32)c1=O`, for which the zone of inhibition at 100 µg/mL in the assay on Bacillus subtilis was 7 mm; with Candida albicans, 1 mm; with Staphylococcus aureus, 6 mm; in the assay on Escherichia coli, 8 mm; in the assay on Pseudomonas aeruginosa, 0 mm.
In the same order, the values of `COc1ccc(NS(=O)(=O)c2ccc(NC(=O)c3cn(CCO)c4c(cc(Cl)c5ncccc54)c3=O)cc2)cc1` are 10 mm, 3 mm, 9 mm, 9 mm and 10 mm.
Take `COc1ccccc1NC(=O)c1cn(CCO)c2c(cc(O)c3ncccc32)c1=O`: the zone of inhibition at 100 µg/mL turned out to be 8 mm in the assay on Bacillus subtilis; 1 mm with Candida albicans; 6 mm in the assay with Staphylococcus aureus; 6 mm in the assay on Escherichia coli; 0 mm in the assay on Pseudomonas aeruginosa.
Regarding `O=C(Nc1ccc(S(=O)(=O)Nc2ccccc2)cc1)c1cn(CCO)c2c(cc(O)c3ncccc32)c1=O`, the zone of inhibition at 100 µg/mL was 8 mm in the assay on Bacillus subtilis; 3 mm in the assay with Candida albicans; 9 mm with Staphylococcus aureus; 9 mm in the assay with Escherichia coli; 10 mm with Pseudomonas aeruginosa.
Regarding `COc1ccc(NC(=S)NC(=O)c2cn(CCO)c3c(cc(Cl)c4ncccc43)c2=O)cc1`, the zone of inhibition at 100 µg/mL in the assay on Bacillus subtilis is 9 mm; in the assay with Candida albicans it was 2 mm; in the assay on Staphylococcus aureus, 8 mm; in the assay with Escherichia coli, 8 mm; in the assay with Pseudomonas aeruginosa, 6 mm.
On to `O=C(Nc1ccc(S(=O)(=O)Nc2cccc([N+](=O)[O-])c2)cc1)c1cn(CCO)c2c(cc(O)c3ncccc32)c1=O`, for which the zone of inhibition at 100 µg/mL in the assay on Bacillus subtilis stood at 8 mm; in the assay on Candida albicans, 2 mm; in the assay on Staphylococcus aureus, 8 mm; with Escherichia coli, 8 mm; with Pseudomonas aeruginosa, 7 mm.
Turning to `Cc1ccc(NC(=S)NC(=O)c2cn(CCO)c3c(cc(Cl)c4ncccc43)c2=O)cc1`, the zone of inhibition at 100 µg/mL worked out at 6 mm in the assay on Bacillus subtilis; 0 mm with Candida albicans; 6 mm in the assay with Staphylococcus aureus; 6 mm with Escherichia coli; 0 mm with Pseudomonas aeruginosa.
As to `Cc1ccccc1NC(=S)NC(=O)c1cn(CCO)c2c(cc(Cl)c3ncccc32)c1=O`, the zone of inhibition at 100 µg/mL with Bacillus subtilis was determined as 8 mm; with Candida albicans, 2 mm; in the assay with Staphylococcus aureus, 6 mm; with Escherichia coli it was 0 mm; in the assay on Pseudomonas aeruginosa, 4 mm.
Regarding `O=C(NC(=S)Nc1cccc([N+](=O)[O-])c1)c1cn(CCO)c2c(cc(O)c3ncccc32)c1=O`, the zone of inhibition at 100 µg/mL in the assay with Bacillus subtilis is 7 mm; in the assay with Candida albicans, 0 mm; with Staphylococcus aureus, 7 mm; with Escherichia coli, 9 mm; in the assay on Pseudomonas aeruginosa it was 10 mm.
For the compound `O=C(Nc1ccc(S(=O)(=O)Nc2ccccc2)cc1)c1cn(CCO)c2c(cc(Cl)c3ncccc32)c1=O`, the zone of inhibition at 100 µg/mL in the assay with Bacillus subtilis was determined as 10 mm; with Candida albicans it was 2 mm; with Staphylococcus aureus, 8 mm; in the assay on Escherichia coli it was 6 mm; with Pseudomonas aeruginosa, 7 mm.
The like results for `Cc1cccc(NC(=O)c2cn(CCO)c3c(cc(O)c4ncccc43)c2=O)c1` were, in that order, 6 mm, 1 mm, 5 mm, 0 mm and 6 mm.
The like results for `O=C(NC(=S)Nc1ccccc1[N+](=O)[O-])c1cn(CCO)c2c(cc(O)c3ncccc32)c1=O` were, in that order, 5 mm, 1 mm, 0 mm, 5 mm and 4 mm.
In the same order, the values of `O=C(Nc1ccc(S(=O)(=O)Nc2cccc(Cl)c2)cc1)c1cn(CCO)c2c(cc(O)c3ncccc32)c1=O` are 9 mm, 3 mm, 8 mm, 9 mm and 8 mm.
In the case of `O=C(NC(=S)Nc1cccc(Cl)c1)c1cn(CCO)c2c(cc(Cl)c3ncccc32)c1=O`, the zone of inhibition at 100 µg/mL in the assay on Bacillus subtilis was determined as 10 mm; in the assay on Candida albicans, 3 mm; with Staphylococcus aureus, 8 mm; in the assay with Escherichia coli, 9 mm; in the assay on Pseudomonas aeruginosa, 9 mm.
Regarding `Cc1ccc(NC(=S)NC(=O)c2cn(CCO)c3c(cc(O)c4ncccc43)c2=O)cc1`, the zone of inhibition at 100 µg/mL in the assay on Bacillus subtilis turned out to be 6 mm; with Candida albicans it was 1 mm; in the assay on Staphylococcus aureus it was 0 mm; with Escherichia coli, 6 mm; in the assay with Pseudomonas aeruginosa, 4 mm.
In the case of `COc1ccc(NC(=O)c2cn(CCO)c3c(cc(Cl)c4ncccc43)c2=O)cc1`, the zone of inhibition at 100 µg/mL with Bacillus subtilis came to 6 mm; in the assay on Candida albicans, 2 mm; in the assay on Staphylococcus aureus, 6 mm; in the assay with Escherichia coli, 0 mm; with Pseudomonas aeruginosa, 6 mm.
On to `O=C(Nc1ccc([N+](=O)[O-])cc1)c1cn(CCO)c2c(cc(O)c3ncccc32)c1=O`, for which the zone of inhibition at 100 µg/mL turned out to be 7 mm in the assay with Bacillus subtilis; 0 mm with Candida albicans; 8 mm in the assay with Staphylococcus aureus; 6 mm in the assay on Escherichia coli; 6 mm in the assay with Pseudomonas aeruginosa.
In the case of `O=C(NC(=S)Nc1ccccc1)c1cn(CCO)c2c(cc(Cl)c3ncccc32)c1=O`, the zone of inhibition at 100 µg/mL in the assay on Bacillus subtilis was 11 mm; in the assay on Candida albicans, 3 mm; in the assay with Staphylococcus aureus, 9 mm; in the assay on Escherichia coli, 10 mm; in the assay with Pseudomonas aeruginosa it was 9 mm.
`O=C(NC(=S)Nc1ccc(O)cc1)c1cn(CCO)c2c(cc(O)c3ncccc32)c1=O`: the zone of inhibition at 100 µg/mL came to 7 mm in the assay with Bacillus subtilis; 0 mm with Candida albicans; 6 mm in the assay with Staphylococcus aureus; 6 mm with Escherichia coli; 6 mm in the assay with Pseudomonas aeruginosa.
As to `O=C(Nc1cccc(Cl)c1)c1cn(CCO)c2c(cc(O)c3ncccc32)c1=O`, the zone of inhibition at 100 µg/mL in the assay with Bacillus subtilis came out at 6 mm; with Candida albicans it was 0 mm; in the assay on Staphylococcus aureus, 0 mm; with Escherichia coli, 4 mm; in the assay with Pseudomonas aeruginosa, 4 mm.
Take `Cc1ccc(C)c(NC(=O)c2cn(CCO)c3c(cc(Cl)c4ncccc43)c2=O)c1`: the zone of inhibition at 100 µg/mL turned out to be 9 mm in the assay on Bacillus subtilis; 0 mm in the assay with Candida albicans; 8 mm in the assay on Staphylococcus aureus; 10 mm in the assay on Escherichia coli; 8 mm in the assay with Pseudomonas aeruginosa.
Consider `Cc1ccccc1NS(=O)(=O)c1ccc(NC(=O)c2cn(CCO)c3c(cc(Cl)c4ncccc43)c2=O)cc1`, for which the zone of inhibition at 100 µg/mL in the assay with Bacillus subtilis was 10 mm; with Candida albicans, 3 mm; in the assay with Staphylococcus aureus, 9 mm; in the assay with Escherichia coli it was 9 mm; in the assay on Pseudomonas aeruginosa, 9 mm.
For the compound `O=C(Nc1ccc(S(=O)(=O)Nc2ccc([N+](=O)[O-])cc2)cc1)c1cn(CCO)c2c(cc(Cl)c3ncccc32)c1=O`, the zone of inhibition at 100 µg/mL in the assay on Bacillus subtilis is 10 mm; with Candida albicans, 3 mm; in the assay with Staphylococcus aureus it was 9 mm; in the assay with Escherichia coli, 11 mm; in the assay with Pseudomonas aeruginosa it was 9 mm.
With `Cc1ccc(NC(=O)c2cn(CCO)c3c(cc(O)c4ncccc43)c2=O)cc1`, the zone of inhibition at 100 µg/mL in the assay with Bacillus subtilis worked out at 8 mm; with Candida albicans, 3 mm; in the assay with Staphylococcus aureus, 9 mm; with Escherichia coli it was 10 mm; in the assay on Pseudomonas aeruginosa, 9 mm.
